In assay [1] the test system is Asexual parasites of P. falciparum strain 3D7. Kind of assay: SYBR Green viability assay on asexual parasites. It counts as cell-based, Plasmodium falciparum. As to conditions: read-out: Activity against asexual parasites EC50.
Assay [2] concerns P. falciparum strain 3D7 gametocytes. Kind of assay: alamarBlue gametocyte viability assay, strain 3D7.
[3] abbreviates: read-out: Gametocytocidal activity EC50, Table 6.

Where two headings read alike, the source gives them in different places.

Take `O=c1ccc2cnc3ccc(-c4cccnc4)cc3c2n1-c1cccc(C(F)(F)F)c1`: the figures for the concentration for a half-maximal effect (EC50) in assay [1] (Table 6) and in assay [2] (setting [3]) were 110 nM and 535 nM, respectively.

Regarding `O=c1ccc2cnc3ccc(-c4cncnc4)cc3c2n1-c1cccc(C(F)(F)F)c1`, the figures for the concentration for a half-maximal effect (EC50) in assay [1] (Table 6) and in assay [2] (setting [3]) were 475 nM and 942 nM, respectively.

For the molecule `CCn1c(=O)ccc2cnc3ccc(-c4ccc(N)nc4)cc3c21`, the EC50 was 1270 nM in assay [1] (Table 6) and 1650 nM in assay [2] (setting [3]).

`CC(=O)Nc1ccc(-c2ccc3ncc4ccc(=O)n(-c5cccc(C(F)(F)F)c5)c4c3c2)cn1`: the EC50 in assay [1] (Table 6) worked out at 106 nM; in assay [2] (setting [3]), 114 nM.

Regarding `Cc1nc(N)ncc1-c1ccc2ncc3ccc(=O)n(-c4cccc(C(F)(F)F)c4)c3c2c1`, the concentration for a half-maximal effect (EC50) in assay [1] (Table 6) was 1150 nM; in assay [2] (setting [3]), 2260 nM.

With `O=c1ccc2cnc3ccc(-c4ccc5[nH]ccc5c4)cc3c2n1-c1cccc(C(F)(F)F)c1`, the EC50 in assay [1] (Table 6) was found to be 191 nM; in assay [2] (setting [3]) it was 325 nM.

On to `O=c1ccc2cnc3ccc(-c4ccc5[nH]ncc5c4)cc3c2n1-c1cccc(C(F)(F)F)c1`, for which the EC50 came out at 64 nM in assay [1] (Table 6) and 74 nM in assay [2] (setting [3]).

As for `Nc1ccc(-c2ccc3ncc4ccc(=O)n(-c5cccc(C(F)(F)F)c5)c4c3c2)cc1`, the EC50 in assay [1] (Table 6) turned out to be 99 nM; in assay [2] (setting [3]) it was 147 nM.

`O=c1ccc2cnc3ccc(-c4cn[nH]c4)cc3c2n1-c1cccc(C(F)(F)F)c1`: the 50% effective concentration (EC50) was found to be 131 nM in assay [1] (Table 6) and 246 nM in assay [2] (setting [3]).

Turning to `O=c1ccc2cnc3ccc(-c4ccc5[nH]cnc5c4)cc3c2n1-c1cccc(C(F)(F)F)c1`, the EC50 in assay [1] (Table 6) is 37 nM; in assay [2] (setting [3]) it was 96 nM.

Turning to `Cc1ccc(C(F)(F)F)cc1-n1c(=O)ccc2cnc3ccc(-c4ccc(N)nc4)cc3c21`, the EC50 in assay [1] (Table 6) was 44 nM; in assay [2] (setting [3]) it was 65 nM.

As for `Cc1cccc(-n2c(=O)ccc3cnc4ccc(-c5ccc(N)nc5)cc4c32)c1`, the half-maximal effective concentration (EC50) in assay [1] (Table 6) worked out at 23 nM; in assay [2] (setting [3]), 19 nM.

Take `Nc1ccc(-c2ccc3ncc4ccc(=O)n(-c5cccc(Cl)c5)c4c3c2)cn1`: the EC50 in assay [1] (Table 6) worked out at 10 nM; in assay [2] (setting [3]) it was 18 nM.

As to `O=c1ccc2cnc3ccc(-c4ccc(-c5nnn[nH]5)cc4)cc3c2n1-c1cccc(C(F)(F)F)c1`, the half-maximal effective concentration (EC50) in assay [1] (Table 6) is more than 20000 nM; in assay [2] (setting [3]) it was 20900 nM.

On to `O=c1ccc2cnc3ccc(-c4ccc(Cl)cc4)cc3c2n1-c1cccc(C(F)(F)F)c1`, for which the 50% effective concentration (EC50) came to 253 nM in assay [1] (Table 6) and 673 nM in assay [2] (setting [3]).

`COc1ccc(-c2ccc3ncc4ccc(=O)n(-c5cccc(C(F)(F)F)c5)c4c3c2)cc1`: the EC50 turned out to be 2460 nM in assay [1] (Table 6) and 3240 nM in assay [2] (setting [3]).

`CC(=O)c1cccc(-c2ccc3ncc4ccc(=O)n(-c5cccc(C(F)(F)F)c5)c4c3c2)c1`: the EC50 worked out at 352 nM in assay [1] (Table 6) and 1240 nM in assay [2] (setting [3]).

`O=c1ccc2cnc3ccc(-c4ccc5c(c4)OCC5)cc3c2n1-c1cccc(C(F)(F)F)c1`: the half-maximal effective concentration (EC50) in assay [1] (Table 6) was 2240 nM; in assay [2] (setting [3]), 3310 nM.

`Cn1ccc2cc(-c3ccc4ncc5ccc(=O)n(-c6cccc(C(F)(F)F)c6)c5c4c3)ccc21`: the 50% effective concentration (EC50) in assay [1] (Table 6) was 2090 nM; in assay [2] (setting [3]), 3260 nM.

Regarding `O=c1ccc2cnc3ccc(-c4ccc5c(c4)OCO5)cc3c2n1-c1cccc(C(F)(F)F)c1`, the results for the EC50 in assay [1] (Table 6) and in assay [2] (setting [3]) were 802 nM and 3130 nM, respectively.

In the case of `O=c1ccc2cnc3ccc(-c4ccc(F)cc4)cc3c2n1-c1cccc(C(F)(F)F)c1`, the figures for the EC50 in assay [1] (Table 6) and in assay [2] (setting [3]) were 580 nM and 2660 nM, respectively.

Regarding `O=c1ccc2cnc3ccc(-c4ccc(O)cc4)cc3c2n1-c1cccc(C(F)(F)F)c1`, the concentration for a half-maximal effect (EC50) in assay [1] (Table 6) was determined as 129 nM; in assay [2] (setting [3]), 165 nM.

In the case of `O=c1ccc2cnc3ccc(-c4ccc5sccc5c4)cc3c2n1-c1cccc(C(F)(F)F)c1`, the EC50 came out at 1640 nM in assay [1] (Table 6) and 3210 nM in assay [2] (setting [3]).

As for `CS(=O)(=O)c1ccc(-c2ccc3ncc4ccc(=O)n(-c5cccc(C(F)(F)F)c5)c4c3c2)cc1`, the concentration for a half-maximal effect (EC50) turned out to be 266 nM in assay [1] (Table 6) and 491 nM in assay [2] (setting [3]).

`O=c1ccc2cnc3ccc(-c4ccc5nonc5c4)cc3c2n1-c1cccc(C(F)(F)F)c1`: the EC50 in assay [1] (Table 6) stood at 1720 nM; in assay [2] (setting [3]) it was 4520 nM.

In the case of `O=c1ccc2cnc3ccc(-c4ccc(N5CCCCC5)nc4)cc3c2n1-c1cccc(C(F)(F)F)c1`, the results for the EC50 in assay [1] (Table 6) and in assay [2] (setting [3]) were 4900 nM and 8090 nM, respectively.

Turning to `Cc1ccc(-c2ccc3ncc4ccc(=O)n(-c5cccc(C(F)(F)F)c5)c4c3c2)cn1`, the concentration for a half-maximal effect (EC50) in assay [1] (Table 6) was found to be 33 nM; in assay [2] (setting [3]), 65 nM.

Consider `NS(=O)(=O)c1ccc(-c2ccc3ncc4ccc(=O)n(-c5cccc(C(F)(F)F)c5)c4c3c2)cc1`, for which the values for the concentration giving a half-maximal response (EC50) in assay [1] (Table 6) and in assay [2] (setting [3]) were 384 nM and 303 nM, respectively.

As to `CN(C)C(=O)c1ccc(-c2ccc3ncc4ccc(=O)n(-c5cccc(C(F)(F)F)c5)c4c3c2)cc1`, the EC50 in assay [1] (Table 6) was 2080 nM; in assay [2] (setting [3]), 1990 nM.

`O=c1ccc2cnc3ccc(-c4ccc(-c5ccccc5)cc4)cc3c2n1-c1cccc(C(F)(F)F)c1`: the figures for the EC50 in assay [1] (Table 6) and in assay [2] (setting [3]) were 15000 nM and 19300 nM, respectively.

As to `Cc1ccc(-c2ccc3ncc4ccc(=O)n(-c5cccc(C(F)(F)F)c5)c4c3c2)cc1`, the results for the EC50 in assay [1] (Table 6) and in assay [2] (setting [3]) were 372 nM and 794 nM, respectively.

Consider `O=c1ccc2cnc3ccc(-c4cncc(Cl)c4)cc3c2n1-c1cccc(C(F)(F)F)c1`, for which the EC50 in assay [1] (Table 6) came out at 3590 nM; in assay [2] (setting [3]), 8800 nM.

Consider `O=c1ccc2cnc3ccc(-c4cccc(N5CCCC5)c4)cc3c2n1-c1cccc(C(F)(F)F)c1`, for which the EC50 in assay [1] (Table 6) came out at 13300 nM; in assay [2] (setting [3]) it was 16100 nM.

For `O=C(c1ccc(-c2ccc3ncc4ccc(=O)n(-c5cccc(C(F)(F)F)c5)c4c3c2)cc1)N1CCNCC1`, the EC50 was found to be 7870 nM in assay [1] (Table 6) and 5570 nM in assay [2] (setting [3]).

Turning to `O=C(c1ccc(-c2ccc3ncc4ccc(=O)n(-c5cccc(C(F)(F)F)c5)c4c3c2)cc1)N1CCOCC1`, the EC50 in assay [1] (Table 6) was determined as 12000 nM; in assay [2] (setting [3]), 22400 nM.

For `O=c1ccc2cnc3ccc(-c4ccc(O)nc4)cc3c2n1-c1cccc(C(F)(F)F)c1`, the EC50 in assay [1] (Table 6) came out at 187 nM; in assay [2] (setting [3]) it was 262 nM.

`NS(=O)(=O)c1cccc(-c2ccc3ncc4ccc(=O)n(-c5cccc(C(F)(F)F)c5)c4c3c2)c1`: the EC50 in assay [1] (Table 6) worked out at 128 nM; in assay [2] (setting [3]), 342 nM.

Turning to `O=C1NCCc2cc(-c3ccc4ncc5ccc(=O)n(-c6cccc(C(F)(F)F)c6)c5c4c3)ccc21`, the figures for the EC50 in assay [1] (Table 6) and in assay [2] (setting [3]) were 1130 nM and 3170 nM, respectively.

As to `O=C1CCc2cc(-c3ccc4ncc5ccc(=O)n(-c6cccc(C(F)(F)F)c6)c5c4c3)ccc2N1`, the concentration for a half-maximal effect (EC50) in assay [1] (Table 6) stood at 1130 nM; in assay [2] (setting [3]), 3170 nM.

`NCc1ccc2ncc3ccc(=O)n(-c4cccc(C(F)(F)F)c4)c3c2c1`: the values for the EC50 in assay [1] (Table 6) and in assay [2] (setting [3]) were 163 nM and 281 nM, respectively.

With `CN(C)Cc1ccc2ncc3ccc(=O)n(-c4cccc(C(F)(F)F)c4)c3c2c1`, the values for the concentration for a half-maximal effect (EC50) in assay [1] (Table 6) and in assay [2] (setting [3]) were 242 nM and 666 nM, respectively.

Consider `CNC(=O)c1ccc(-c2ccc3ncc4ccc(=O)n(-c5cccc(C(F)(F)F)c5)c4c3c2)cc1`, for which the EC50 was determined as 17 nM in assay [1] (Table 6) and 61 nM in assay [2] (setting [3]).

In the case of `O=C1Cc2cc(-c3ccc4ncc5ccc(=O)n(-c6cccc(C(F)(F)F)c6)c5c4c3)ccc2N1`, the 50% effective concentration (EC50) in assay [1] (Table 6) came to 19 nM; in assay [2] (setting [3]), 51 nM.

As to `O=C1NCc2cc(-c3ccc4ncc5ccc(=O)n(-c6cccc(C(F)(F)F)c6)c5c4c3)ccc21`, the EC50 in assay [1] (Table 6) was 517 nM; in assay [2] (setting [3]), 1790 nM.

In the case of `CCc1cc2cnc3ccc(-c4ccc(N)nc4)cc3c2n(-c2cccc(C(F)(F)F)c2)c1=O`, the EC50 in assay [1] (Plasmodium falciparum, 3D7, Table 8) is 260 nM; in assay [2] (Plasmodium falciparum, 3D7, read-out: Gametocytocidal activity EC50, Table 8), 136 nM.

The values above are taken from US20160264570A1, “METHOD OF BLOCKING TRANSMISSION OF MALARIAL PARASITE” (THE UNITED STATES OF AMERICA, AS REPRESENTED BY THE …, priority 2013, published 2016).
